Legend:
Test in all cases: Kinase profiling of R428
Format in all cases: biochemical
[1] = target: Plk1(h) (Homo sapiens, UniProt P53350); settings: 100 μM ATP, lower number = more robust inhibition
Protocol: (§1) The efficiency of the AXL inhibitor R428 for targeting different kinases was assessed by Kinase Profiling Services using 100 μM ATP concentration (EMD Millipore). R428 was tested at 1 and 10 μM. Table IV lists the kinases profiled along with the efficiency in targeting the kinases with a lower number indicating a more robust inhibition of a particular kinase.

[2] = target: ALK4(h) (Homo sapiens, UniProt P36896); settings: 100 μM ATP, lower number = more robust inhibition
Protocol: as §1

[3] = target: PKBα(h) (Homo sapiens, UniProt P31749); settings: 100 μM ATP, lower number = more robust inhibition, read-out: efficiency in targeting PKBα(h)
Protocol: as §1

[4] = target: PKCβ1(h) (Homo sapiens, UniProt P05771); settings: 100 μM ATP, lower number = more robust inhibition
Protocol: as §1

[5] = target: TGEBR1(h) (Homo sapiens, UniProt P36897); settings: 100 μM ATP, lower number = more robust inhibition
Protocol: as §1

[6] = target: Aurora-B(h) (Homo sapiens, UniProt Q96GD4); settings: for efficiency in targeting Aurora-B(h): 100 μM ATP, lower number = more robust inhibition
Aurora-B(h), sequence (Q96GD4 whole entry): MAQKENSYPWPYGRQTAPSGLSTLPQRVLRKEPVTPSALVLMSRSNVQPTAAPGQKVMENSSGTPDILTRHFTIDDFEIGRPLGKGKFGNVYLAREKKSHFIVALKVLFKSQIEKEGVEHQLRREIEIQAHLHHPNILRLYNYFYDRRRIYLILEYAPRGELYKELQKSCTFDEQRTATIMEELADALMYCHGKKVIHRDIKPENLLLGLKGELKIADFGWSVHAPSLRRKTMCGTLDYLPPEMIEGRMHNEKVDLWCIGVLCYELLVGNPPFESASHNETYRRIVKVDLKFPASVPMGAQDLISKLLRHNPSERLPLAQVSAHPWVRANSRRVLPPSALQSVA
Protocol: as §1

[7] = target: GSK313(h) (Homo sapiens, UniProt P49841); settings: 100 μM ATP, lower number = more robust inhibition
Protocol: as §1

[8] = target: Pim-2(h) (Homo sapiens, UniProt Q9P1W9); settings: 100 μM ATP, lower number = more robust inhibition
Pim-2(h), sequence (Q9P1W9 whole entry): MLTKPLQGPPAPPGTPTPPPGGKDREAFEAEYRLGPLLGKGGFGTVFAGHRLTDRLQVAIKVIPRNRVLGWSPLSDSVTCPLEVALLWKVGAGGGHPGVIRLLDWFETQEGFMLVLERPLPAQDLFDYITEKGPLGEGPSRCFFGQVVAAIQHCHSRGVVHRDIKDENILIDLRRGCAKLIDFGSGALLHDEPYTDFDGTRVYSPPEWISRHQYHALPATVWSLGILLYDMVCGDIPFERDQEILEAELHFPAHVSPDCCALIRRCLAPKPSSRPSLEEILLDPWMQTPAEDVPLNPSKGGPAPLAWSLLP
Protocol: as §1

[9] = target: PKCα(h) (Homo sapiens, UniProt P17252); settings: 100 μM ATP, lower number = more robust inhibition
Protocol: as §1

[10] = target: Blk(h) (Homo sapiens, UniProt P51451); settings: 100 μM ATP, lower number = more robust inhibition
Protocol: as §1

[11] = target: JAK3(h) (Homo sapiens, UniProt P52333); settings: 100 μM ATP, lower number = more robust inhibition
Protocol: as §1

[12] = target: CDK1/cyclinB (Hh) (Homo sapiens, UniProt P06493); settings: 100 μM ATP, lower number = more robust inhibition
Protocol: as §1

[13] = target: Met(h) (Homo sapiens, UniProt P08581); settings: 100 μM ATP, lower number = more robust inhibition
Protocol: as §1

[14] = target: CDK5/p35(h) (Homo sapiens, UniProt Q00535); settings: 100 μM ATP, lower number = more robust inhibition
Protocol: as §1

[15] = target: SAPK3(h) (Homo sapiens, UniProt P53778); settings: 100 μM ATP, lower number = more robust inhibition
Protocol: as §1

[16] = target: PKA(h) (Homo sapiens, UniProt P17612); settings: 100 μM ATP, lower number = more robust inhibition
Protocol: as §1

[17] = target: ZAP-70(h) (Homo sapiens, UniProt P43403); settings: 100 μM ATP, lower number = more robust inhibition
Protocol: as §1

[18] = target: CaMKIδ(h) (Homo sapiens, UniProt Q8IU85); settings: 100 μM ATP, lower number = more robust inhibition
Protocol: as §1

[19] = target: GSK3 a(h) (Homo sapiens, UniProt P49840); settings: 100 μM ATP, lower number = more robust inhibition
Protocol: as §1

[20] = target: SAPK4(h) (Homo sapiens, UniProt O15264); settings: 100 μM ATP, lower number = more robust inhibition
Protocol: as §1

[21] = target: PDGFRβ(h) (Homo sapiens, UniProt P09619); settings: 100 μM ATP, lower number = more robust inhibition
Protocol: as §1

[22] = target: Plk3(h) (Homo sapiens, UniProt Q9H4B4); settings: 100 μM ATP, lower number = more robust inhibition
Protocol: as §1

[23] = target: EGFR(h) (Homo sapiens, UniProt P00533); settings: 100 μM ATP, lower number = more robust inhibition
EGFR(h), sequence (P00533 25-1210): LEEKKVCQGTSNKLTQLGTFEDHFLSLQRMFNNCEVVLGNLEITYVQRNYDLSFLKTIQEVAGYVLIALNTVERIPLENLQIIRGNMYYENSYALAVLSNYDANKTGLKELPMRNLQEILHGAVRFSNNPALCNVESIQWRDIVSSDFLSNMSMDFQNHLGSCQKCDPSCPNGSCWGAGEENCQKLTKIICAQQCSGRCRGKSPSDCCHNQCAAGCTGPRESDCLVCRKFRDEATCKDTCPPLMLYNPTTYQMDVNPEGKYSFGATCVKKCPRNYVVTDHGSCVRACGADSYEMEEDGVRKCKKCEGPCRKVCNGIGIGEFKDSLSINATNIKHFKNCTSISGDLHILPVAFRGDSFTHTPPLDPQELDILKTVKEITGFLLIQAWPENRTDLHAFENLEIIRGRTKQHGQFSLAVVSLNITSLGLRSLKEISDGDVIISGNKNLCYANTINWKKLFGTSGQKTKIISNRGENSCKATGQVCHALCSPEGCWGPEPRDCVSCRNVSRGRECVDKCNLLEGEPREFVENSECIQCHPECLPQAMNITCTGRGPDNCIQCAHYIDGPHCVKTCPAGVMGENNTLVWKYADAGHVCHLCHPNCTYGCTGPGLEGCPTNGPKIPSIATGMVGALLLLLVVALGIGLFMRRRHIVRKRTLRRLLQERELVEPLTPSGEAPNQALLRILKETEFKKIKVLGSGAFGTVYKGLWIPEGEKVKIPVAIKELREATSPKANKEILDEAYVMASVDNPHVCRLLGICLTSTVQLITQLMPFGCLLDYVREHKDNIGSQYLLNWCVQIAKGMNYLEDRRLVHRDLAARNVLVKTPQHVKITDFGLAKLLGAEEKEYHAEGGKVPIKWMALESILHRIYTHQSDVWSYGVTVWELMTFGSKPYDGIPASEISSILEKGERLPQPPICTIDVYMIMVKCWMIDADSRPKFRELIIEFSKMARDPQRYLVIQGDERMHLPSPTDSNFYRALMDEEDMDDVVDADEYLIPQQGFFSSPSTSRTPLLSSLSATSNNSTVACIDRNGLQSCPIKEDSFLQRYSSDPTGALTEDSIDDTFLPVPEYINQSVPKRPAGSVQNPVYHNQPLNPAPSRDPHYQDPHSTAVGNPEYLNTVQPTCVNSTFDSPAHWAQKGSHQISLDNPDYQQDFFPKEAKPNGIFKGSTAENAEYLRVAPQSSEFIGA
Protocol: as §1

[24] = target: IR(h) (Homo sapiens, UniProt P06213); settings: 100 μM ATP, lower number = more robust inhibition
Protocol: as §1

[25] = target: FGFR1(h) (Homo sapiens, UniProt P11362); settings: for efficiency in targeting FGFR1(h): 100 μM ATP, lower number = more robust inhibition
FGFR1(h), sequence (P11362 22-822): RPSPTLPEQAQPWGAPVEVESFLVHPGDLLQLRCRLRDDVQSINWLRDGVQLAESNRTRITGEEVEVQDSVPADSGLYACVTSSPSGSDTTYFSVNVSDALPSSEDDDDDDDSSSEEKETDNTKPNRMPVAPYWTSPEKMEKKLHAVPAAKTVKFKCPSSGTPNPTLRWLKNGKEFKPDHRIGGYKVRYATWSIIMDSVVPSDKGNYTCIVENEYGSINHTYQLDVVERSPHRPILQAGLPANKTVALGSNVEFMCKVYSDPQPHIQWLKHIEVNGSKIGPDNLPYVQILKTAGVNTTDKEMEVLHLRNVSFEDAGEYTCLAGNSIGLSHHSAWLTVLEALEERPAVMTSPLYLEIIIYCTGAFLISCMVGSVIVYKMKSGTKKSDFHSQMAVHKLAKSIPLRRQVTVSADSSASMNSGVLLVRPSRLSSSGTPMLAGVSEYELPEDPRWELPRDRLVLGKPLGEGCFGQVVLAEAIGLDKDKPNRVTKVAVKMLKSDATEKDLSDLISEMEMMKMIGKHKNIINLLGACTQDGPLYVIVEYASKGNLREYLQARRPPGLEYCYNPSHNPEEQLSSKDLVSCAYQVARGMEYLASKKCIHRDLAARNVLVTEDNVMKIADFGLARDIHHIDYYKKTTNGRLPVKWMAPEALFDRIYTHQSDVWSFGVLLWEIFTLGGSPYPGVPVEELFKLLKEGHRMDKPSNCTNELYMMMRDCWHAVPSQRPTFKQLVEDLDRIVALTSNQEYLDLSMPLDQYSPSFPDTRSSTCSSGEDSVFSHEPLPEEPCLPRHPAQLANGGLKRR
Protocol: as §1

[26] = target: Ret(h) (Homo sapiens, UniProt P07949); settings: for efficiency in targeting Ret(h): 100 μM ATP, lower number = more robust inhibition
Ret(h), sequence (P07949 29-1114): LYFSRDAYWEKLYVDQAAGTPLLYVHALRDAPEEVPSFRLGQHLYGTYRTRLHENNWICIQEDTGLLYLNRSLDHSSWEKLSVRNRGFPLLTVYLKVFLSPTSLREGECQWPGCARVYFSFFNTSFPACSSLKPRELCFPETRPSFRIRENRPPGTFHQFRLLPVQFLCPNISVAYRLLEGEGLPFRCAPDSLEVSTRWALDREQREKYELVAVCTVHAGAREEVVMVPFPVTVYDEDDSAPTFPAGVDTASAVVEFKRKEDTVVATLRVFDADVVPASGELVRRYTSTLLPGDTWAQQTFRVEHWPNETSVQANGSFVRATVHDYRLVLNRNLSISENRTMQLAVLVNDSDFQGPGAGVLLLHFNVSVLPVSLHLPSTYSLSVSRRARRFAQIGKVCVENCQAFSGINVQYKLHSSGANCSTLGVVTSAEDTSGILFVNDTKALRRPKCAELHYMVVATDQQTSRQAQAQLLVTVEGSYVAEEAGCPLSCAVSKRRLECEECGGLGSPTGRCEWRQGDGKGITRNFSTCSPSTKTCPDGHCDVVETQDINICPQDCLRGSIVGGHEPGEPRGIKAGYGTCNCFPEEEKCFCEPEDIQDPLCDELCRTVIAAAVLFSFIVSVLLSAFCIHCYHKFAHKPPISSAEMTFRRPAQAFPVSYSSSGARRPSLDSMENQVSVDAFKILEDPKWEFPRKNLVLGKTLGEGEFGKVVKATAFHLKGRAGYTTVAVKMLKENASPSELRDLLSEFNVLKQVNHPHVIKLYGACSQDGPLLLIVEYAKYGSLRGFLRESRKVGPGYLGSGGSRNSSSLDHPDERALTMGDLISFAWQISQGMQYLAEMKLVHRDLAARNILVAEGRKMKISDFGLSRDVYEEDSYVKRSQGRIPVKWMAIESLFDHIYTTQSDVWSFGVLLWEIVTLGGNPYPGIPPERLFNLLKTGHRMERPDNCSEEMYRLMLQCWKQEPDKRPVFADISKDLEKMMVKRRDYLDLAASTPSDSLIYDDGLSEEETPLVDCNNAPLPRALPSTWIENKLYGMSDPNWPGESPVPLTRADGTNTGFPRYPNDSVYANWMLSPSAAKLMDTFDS
Protocol: as §1

[27] = target: JAK2(h) (Homo sapiens, UniProt O60674); settings: 100 μM ATP, lower number = more robust inhibition
Protocol: as §1

[28] = target: cSRC(h) (Homo sapiens, UniProt P12931); settings: 100 μM ATP, lower number = more robust inhibition
cSRC(h), sequence (P12931 whole entry): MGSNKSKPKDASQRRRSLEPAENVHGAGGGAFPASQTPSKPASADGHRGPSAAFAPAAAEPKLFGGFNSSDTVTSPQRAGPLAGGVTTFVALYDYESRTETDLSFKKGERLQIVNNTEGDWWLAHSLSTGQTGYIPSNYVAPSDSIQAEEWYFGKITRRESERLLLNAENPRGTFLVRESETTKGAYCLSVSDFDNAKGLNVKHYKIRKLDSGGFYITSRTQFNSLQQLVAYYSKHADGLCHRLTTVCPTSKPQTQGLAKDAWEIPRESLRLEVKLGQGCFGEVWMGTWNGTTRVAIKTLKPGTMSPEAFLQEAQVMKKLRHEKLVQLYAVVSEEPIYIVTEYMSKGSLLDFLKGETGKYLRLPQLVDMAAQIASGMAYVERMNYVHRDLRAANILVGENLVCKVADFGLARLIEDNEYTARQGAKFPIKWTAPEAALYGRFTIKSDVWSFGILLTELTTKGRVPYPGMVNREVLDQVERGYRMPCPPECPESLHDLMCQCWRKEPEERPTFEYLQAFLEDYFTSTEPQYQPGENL
Protocol: as §1

[29] = target: Rsk3(h) (Homo sapiens, UniProt Q15349); settings: for efficiency in targeting Rsk3(h): 100 μM ATP, lower number = more robust inhibition
Rsk3(h), sequence (Q15349 whole entry): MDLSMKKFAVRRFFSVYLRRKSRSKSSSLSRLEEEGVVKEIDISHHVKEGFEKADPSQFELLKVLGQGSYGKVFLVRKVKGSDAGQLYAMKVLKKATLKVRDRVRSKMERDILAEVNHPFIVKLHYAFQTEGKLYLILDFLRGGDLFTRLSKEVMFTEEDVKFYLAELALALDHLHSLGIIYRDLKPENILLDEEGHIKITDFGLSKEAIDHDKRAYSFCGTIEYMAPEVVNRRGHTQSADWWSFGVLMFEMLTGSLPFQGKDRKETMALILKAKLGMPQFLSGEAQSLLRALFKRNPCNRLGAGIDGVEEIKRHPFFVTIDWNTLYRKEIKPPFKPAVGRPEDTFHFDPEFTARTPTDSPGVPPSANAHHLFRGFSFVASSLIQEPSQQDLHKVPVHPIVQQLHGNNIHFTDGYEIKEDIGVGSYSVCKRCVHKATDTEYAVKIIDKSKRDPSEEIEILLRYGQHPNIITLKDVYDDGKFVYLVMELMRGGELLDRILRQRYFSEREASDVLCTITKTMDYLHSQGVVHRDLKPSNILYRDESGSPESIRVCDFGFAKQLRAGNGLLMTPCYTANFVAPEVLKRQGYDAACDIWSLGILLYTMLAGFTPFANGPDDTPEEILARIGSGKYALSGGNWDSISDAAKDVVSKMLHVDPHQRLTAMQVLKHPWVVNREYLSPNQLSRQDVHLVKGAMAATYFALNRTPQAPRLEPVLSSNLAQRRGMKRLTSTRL
Protocol: as §1

[30] = target: CHK1(h) (Homo sapiens, UniProt O14757); settings: 100 μM ATP, lower number = more robust inhibition
Protocol: as §1

[31] = target: CHK2(h) (Homo sapiens, UniProt O96017); settings: 100 μM ATP, lower number = more robust inhibition
Protocol: as §1

Nc1nc(Nc2ccc3c(c2)CC[C@@H](N2CCCC2)CC3)nn1-c1cc2c(nn1)-c1ccccc1CCC2 [R428, 1H-1,2,4-Triazole-3,5-diamine, 1-(6,7-dihydro-5H-benzo[6,7]cyclohepta[1,2-c]pyridazin-3-yl) N3-[(7S)-6,7,8,9-tetrahydro-7-(1-pyrrolidinyl)-5H-benzocyclohepten-2-yl]-]
efficiency in targeting Plk1(h) ([1]; R428 @ 1 μM): 83
efficiency in targeting Plk1(h) ([1]; R428 @ 10 μM): 65
efficiency in targeting ALK4(h) ([2]; R428 @ 1 μM): 84
efficiency in targeting ALK4(h) ([2]; R428 @ 10 μM): 48
activity at 1 µM ([3]; R428 @ 1 μM): 87%
activity at 10 µM ([3]; R428 @ 10 μM): 57%
efficiency in targeting PKCβ1(h) ([4]; R428 @ 1 μM): 102
efficiency in targeting PKCβ1(h) ([4]; R428 @ 10 μM): 95
efficiency in targeting TGEBR1(h) ([5]; R428 @ 1 μM): 97
efficiency in targeting TGEBR1(h) ([5]; R428 @ 10 μM): 69
efficiency in targeting Aurora-B(h) ([6]; R428 @ 1 μM): 1
efficiency in targeting Aurora-B(h) ([6]; R428 @ 10 μM): 0
inhibition of AuroraB (in words) ([6]; at 1 and 10 μM): potently inhibits
efficiency in targeting GSK313(h) ([7]; R428 @ 1 μM): 106
efficiency in targeting GSK313(h) ([7]; R428 @ 10 μM): 99
efficiency in targeting Pim-2(h) ([8]; R428 @ 1 μM): 87
efficiency in targeting Pim-2(h) ([8]; R428 @ 10 μM): 74
efficiency in targeting PKCα(h) ([9]; R428 @ 1 μM): 101
efficiency in targeting PKCα(h) ([9]; R428 @ 10 μM): 96
efficiency in targeting Blk(h) ([10]; R428 @ 1 μM): 27
efficiency in targeting Blk(h) ([10]; R428 @ 10 μM): 2
efficiency in targeting JAK3(h) ([11]; R428 @ 1 μM): 69
efficiency in targeting JAK3(h) ([11]; R428 @ 10 μM): 18
efficiency in targeting CDK1/cyclinB (Hh) ([12]; R428 @ 1 μM): 101
efficiency in targeting CDK1/cyclinB (Hh) ([12]; R428 @ 10 μM): 88
efficiency in targeting Met(h) ([13]; R428 @ 1 μM): 49
efficiency in targeting Met(h) ([13]; R428 @ 10 μM): -1
efficiency in targeting CDK5/p35(h) ([14]; R428 @ 1 μM): 101
efficiency in targeting CDK5/p35(h) ([14]; R428 @ 10 μM): 94
efficiency in targeting SAPK3(h) ([15]; R428 @ 1 μM): 106
efficiency in targeting SAPK3(h) ([15]; R428 @ 10 μM): 108
efficiency in targeting PKA(h) ([16]; R428 @ 1 μM): 88
efficiency in targeting PKA(h) ([16]; R428 @ 10 μM): 35
efficiency in targeting ZAP-70(h) ([17]; R428 @ 1 μM): 92
efficiency in targeting ZAP-70(h) ([17]; R428 @ 10 μM): 66
efficiency in targeting CaMKIδ(h) ([18]; R428 @ 1 μM): 76
efficiency in targeting CaMKIδ(h) ([18]; R428 @ 10 μM): 24
efficiency in targeting GSK3 a(h) ([19]; R428 @ 1 μM): 95
efficiency in targeting GSK3 a(h) ([19]; R428 @ 10 μM): 105
efficiency in targeting SAPK4(h) ([20]; R428 @ 1 μM): 94
efficiency in targeting SAPK4(h) ([20]; R428 @ 10 μM): 91
efficiency in targeting PDGFRβ(h) ([21]; R428 @ 1 μM): 37
efficiency in targeting PDGFRβ(h) ([21]; R428 @ 10 μM): 21
efficiency in targeting Plk3(h) ([22]; R428 @ 1 μM): 101
efficiency in targeting Plk3(h) ([22]; R428 @ 10 μM): 81
efficiency in targeting EGFR(h) ([23]; R428 @ 1 μM): 89
efficiency in targeting EGFR(h) ([23]; R428 @ 10 μM): 40
efficiency in targeting IR(h) ([24]; R428 @ 1 μM): 83
efficiency in targeting IR(h) ([24]; R428 @ 10 μM): 24
efficiency in targeting FGFR1(h) ([25]; R428 @ 1 μM): 17
efficiency in targeting FGFR1(h) ([25]; R428 @ 10 μM): 1
inhibition of FGFr1 (in words) ([25]; at 1 and 10 μM): potently inhibits
efficiency in targeting Ret(h) ([26]; R428 @ 1 μM): 1
efficiency in targeting Ret(h) ([26]; R428 @ 10 μM): 1
inhibition of Ret (in words) ([26]; at 1 and 10 μM): potently inhibits
efficiency in targeting JAK2(h) ([27]; R428 @ 1 μM): 96
efficiency in targeting JAK2(h) ([27]; R428 @ 10 μM): 41
efficiency in targeting cSRC(h) ([28]; R428 @ 1 μM): 51
efficiency in targeting cSRC(h) ([28]; R428 @ 10 μM): 10
efficiency in targeting Rsk3(h) ([29]; R428 @ 1 μM): 2
efficiency in targeting Rsk3(h) ([29]; R428 @ 10 μM): 1
inhibition of RSK3 (in words) ([29]; at 1 and 10 μM): potently inhibits
efficiency in targeting CHK1(h) ([30]; R428 @ 1 μM): 71
efficiency in targeting CHK1(h) ([30]; R428 @ 10 μM): 23
efficiency in targeting CHK2(h) ([31]; R428 @ 1 μM): 47
efficiency in targeting CHK2(h) ([31]; R428 @ 10 μM): 9

From patent publication US10870832B2, “Use of small molecules to enhance MAFA expression in pancreatic endocrine cells” (Janssen Biotech, Inc., priority 2014, dated 2020)
